Assay: xn = mol fraction of the nth substance listed

CC1=CCC(=C(C)C)CC1 + Brc1ccccc1
viscosity [mPa·s], 101 kPa
Settings | x1 = 0.0687 | x1 = 0.1424 | x1 = 0.2216 | x1 = 0.307 | x1 = 0.3992 | x1 = 0.4992 | x1 = 0.6079 | x1 = 0.7266 | x1 = 0.8567
303.15 K | 0.993 | 1 | 1.011 | 1.023 | 1.032 | 1.036 | 1.033 | 1.023 | 1.01
308.15 K | 0.942 | 0.948 | 0.957 | 0.967 | 0.975 | 0.979 | 0.973 | 0.962 | 0.947
313.15 K | 0.893 | 0.897 | 0.905 | 0.913 | 0.919 | 0.922 | 0.915 | 0.903 | 0.887

CCc1ccccc1 + C1CCCCC1
303.15 K, 101 kPa
Settings | viscosity [mPa·s]
x2 = 0.1 | 0.5951
x2 = 0.199 | 0.5943
x2 = 0.2994 | 0.5972
x2 = 0.3986 | 0.6025
x2 = 0.5008 | 0.6166
x2 = 0.5984 | 0.6366
x2 = 0.7004 | 0.6596
x2 = 0.798 | 0.7008
x2 = 0.9002 | 0.7571

COC(C)(C)C + C1CCCCC1
303.15 K, 101 kPa
Settings | viscosity [mPa·s]
x1 = 0.132 | 0.693
x1 = 0.2612 | 0.609
x1 = 0.3989 | 0.536
x1 = 0.5216 | 0.485
x1 = 0.5654 | 0.466
x1 = 0.7149 | 0.42
x1 = 0.8393 | 0.384

Clc1ccccc1 + C1CCCCC1
Settings | viscosity [mPa·s]
293.65 K, 101.33 kPa, x2 = 0.497 | 0.834
293.85 K, 101.33 kPa, x2 = 0.7 | 0.8665
294.25 K, 101.33 kPa, x2 = 0.3 | 0.8152
294.55 K, 101.33 kPa, x2 = 0.4 | 0.819
294.75 K, 101.33 kPa, x2 = 0.2 | 0.8056
294.85 K, 101.33 kPa, x2 = 0.8 | 0.889
295.15 K, 101.33 kPa, x2 = 0.6 | 0.8189
297.15 K, 101.33 kPa, x2 = 0.1 | 0.7894
303.05 K, 101.33 kPa, x2 = 0.3 | 0.738
303.25 K, 101.33 kPa, x2 = 0.7 | 0.7564
303.25 K, 101.33 kPa, x2 = 0.8 | 0.7829
303.45 K, 101.33 kPa, x2 = 0.1 | 0.731
303.75 K, 101.33 kPa, x2 = 0.2 | 0.7191
303.85 K, 101.33 kPa, x2 = 0.4 | 0.7276
303.85 K, 101.33 kPa, x2 = 0.6 | 0.7319
303.95 K, 101.33 kPa, x2 = 0.497 | 0.7249
308.15 K, 101 kPa, x2 = 0.0465 | 0.6656
308.15 K, 101 kPa, x2 = 0.1818 | 0.6489
308.15 K, 101 kPa, x2 = 0.2516 | 0.6418
308.15 K, 101 kPa, x2 = 0.3629 | 0.6379
308.15 K, 101 kPa, x2 = 0.4845 | 0.6421
308.15 K, 101 kPa, x2 = 0.5788 | 0.6489
308.15 K, 101 kPa, x2 = 0.6926 | 0.6668
308.15 K, 101 kPa, x2 = 0.807 | 0.6991
308.15 K, 101 kPa, x2 = 0.9588 | 0.7386
312.65 K, 101.33 kPa, x2 = 0.1 | 0.6777
312.75 K, 101.33 kPa, x2 = 0.497 | 0.6502
312.75 K, 101.33 kPa, x2 = 0.7 | 0.666
312.95 K, 101.33 kPa, x2 = 0.4 | 0.6505
312.95 K, 101.33 kPa, x2 = 0.6 | 0.5637
313.15 K, 101 kPa, x2 = 0.0465 | 0.6298
313.15 K, 101 kPa, x2 = 0.1818 | 0.6122
313.15 K, 101 kPa, x2 = 0.2516 | 0.6045
313.15 K, 101 kPa, x2 = 0.3629 | 0.5973
313.15 K, 101 kPa, x2 = 0.4845 | 0.601
313.15 K, 101 kPa, x2 = 0.5788 | 0.6074
313.15 K, 101 kPa, x2 = 0.6926 | 0.6254
313.15 K, 101 kPa, x2 = 0.807 | 0.6532
313.15 K, 101 kPa, x2 = 0.9588 | 0.689
313.25 K, 101.33 kPa, x2 = 0.2 | 0.6448
313.45 K, 101.33 kPa, x2 = 0.3 | 0.6518
313.75 K, 101.33 kPa, x2 = 0.8 | 0.6758
322.55 K, 101.33 kPa, x2 = 0.497 | 0.5847
322.55 K, 101.33 kPa, x2 = 0.6 | 0.585
322.75 K, 101.33 kPa, x2 = 0.3 | 0.591
322.75 K, 101.33 kPa, x2 = 0.4 | 0.5803
322.85 K, 101.33 kPa, x2 = 0.7 | 0.5926
322.85 K, 101.33 kPa, x2 = 0.8 | 0.6059

Reference: the CheMixHub viscosity set
